Test results published in US20230355708A1 (priority 2020, published 2023).
*1 amine or outer side, *2 acyl side, *3 side chain or, on linkers, in order; H or OH if unused. Where a SMILES comes first, the peptide text is derived from it. Bridges are numbered along the chain shown (N, C = ends). [ ]: non-standard residue; d: D form. X1 = Cc1ccc(-c2ccc(-c3cn([C@H]4C[C@@H](C(=O)[*:2])N([*:1])C4)nn3)cc2)s1

Assays:
[1] = test system: Fully-infected HIVNL4.3; settings: read-out: Fully-infected HIVNL4.3 IC50
[2] = test system: HIVBal.01; settings: read-out: HIVBal.01 IC50
[3] = test system: HIVJRFL; settings: read-out: HIVJRFL IC50
[4] = test system: HIV-1; assay type: in vivo; settings: animal model
[5] = test system: clade_AE envelope; assay type: binding, HIV-1
[6] = test system: SARS-CoV-1 pseudoviruses; assay type: cell-based
[7] = test system: SARS-CoV-1 pseudoviruses; assay type: cell-based; remark: listed apart in the source
[8] = test system: SARS-CoV-1 pseudoviruses
[9] = molecular target: SARS-CoV-2 spike S2 subunit (Severe acute respiratory syndrome coronavirus 2, UniProt P0DTC2)
[10] = test system: SARS-CoV-2 pseudoviruses; assay type: cell-based
[11] = test system: SARS-CoV-2 pseudoviruses; assay type: cell-based; remark: listed apart in the source
[12] = test system: SARS-CoV-2 pseudoviruses

Row | Molecule | IC50 [1] [µM] | IC50 [2] [µM] | IC50 [3] [µM] | HIV-1 viral load normalized to Hu CD4+ T cell counts [4] | binding to clade_AE envelope [5] | irreversible inactivation of SARS-CoV-1 [6] | inhibition of SARS-CoV-1 pseudovirus infection [7] | virolysis of SARS-CoV-1 pseudoviruses [8] | stoichiometry of binding, S2 versus S1 [9] | inhibition of SARS-CoV-2 pseudovirus infection [10] | irreversible inactivation of SARS-CoV-2 [11] | virolysis of SARS-CoV-2 pseudoviruses [12]
1 | CC[C@H](C)[C@@H]1NC(=O)[C@H](CC(N)=O)NC(=O)[C@@H](N)CC(=O)NCCCC[C@@H](C(N)=O)NC(=O)[C@H](Cc2c[nH]c3ccccc23)NC(=O)[C@@H]2C[C@H](n3cc(-c4ccc(-c5ccc(C)s5)cc4)nn3)CN2C1=O [AAR029N2, (3S,6S,14S,17S,20S,24S,25aS)-3-((1H-indol-3-yl)methyl)-14-amino-17-(2-amino-2-oxoethyl)-20-((S)-sec-butyl)-24-(4-(4-(5-methylthiophen-2-yl)phenyl)-1H-1,2,3-triazol-1-yl)-1,4,12,15,18,21-hexaoxotetracosahydro-1H-pyrrolo[2,1-f][1,4,7,10,13,18]hexaazacyclotricosine-6-carboxamide] (H-DNI[X1]WK-NH2; lactam 1-6) | ~0.18 | ~0.1 | ~0.112 | significant efficacy in an animal model | binds clade_AE envelope | – | – | – | – | – | – | –
2 | GRFT: lectin Griffithsin, SEQ ID NO:2 | – | – | – | – | – | partial irreversible inactivation | reduced inhibition of infection | does not causes significant virolysis | higher for the S2 subunit as compared to the S1 subunit | reduced inhibition of infection | partial irreversible inactivation | does not causes significant virolysis
